Here are results for 40 substances from patent US11214803B2, “Modulators of YAP1 expression” (Ionis Pharmaceuticals, Inc., priority 2019, dated 2022).

Strand notation (5' to 3'): a small letter for the sugar, then the base; units joined by * are phosphorothioate-linked, units joined directly phosphodiester-linked; [ ] holds rarer units or linkages, { } end groups; capitals alone tell only the bases. e = 2'-O-(2-methoxyethyl) (MOE); k = constrained ethyl (cEt); [5mC] = 5-methylcytosine; d = 2'-deoxy (DNA)

One data set relates to Yap1 mRNA. Briefly: Antisense inhibition of human Yap1 in SNU-449 cells by modified oligonucleotides, single dose (Example 5, RTS36584). In kind it is cell-based. The following applies: Table 42 (separate experiment); SNU-449 cells, 10,000 cells per well, free uptake, 2,000 nM modified oligonucleotide, approximately 48 hours; RTS36584; normalized to RIBOGREEN; Yap1 mRNA relative to untreated control cells. Summed up:
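SNU-449 cells were given 2,000 nM oligonucleotide by free uptake for about 48 h. Yap1 mRNA was then measured by RT-qPCR with primer probe set RTS36584, normalized to total RNA by RIBOGREEN and expressed as percent of untreated control.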
For the substance “1198234 (kG*k[5mC]*dT*dT*dT*dG*dG*dA*dA*dG*dA*eT*e[5mC]*eT*kG*kA) [Compound 1198234]”, the “YAP1 (% UTC)” value turned out to be 45 % UTC.

In the case of “1198235 (kT*kG*d[5mC]*dT*dT*dT*dG*dG*dA*dA*dG*eA*eT*e[5mC]*kT*kG) [Compound 1198235]”, the “YAP1 (% UTC)” value was determined as 49 % UTC.

In the case of “1198236 (kG*kT*dG*d[5mC]*dT*dT*dT*dG*dG*dA*dA*eG*eA*eT*k[5mC]*kT) [Compound 1198236]”, the “YAP1 (% UTC)” value is on record as 24 % UTC.

As for “1198237 (AGTGCTTTGGAAGATC; chemistry not fully specified) [Compound 1198237]”, the “YAP1 (% UTC)” value is listed as 51 % UTC.

“1198238 (kA*kT*dA*dG*dT*dG*d[5mC]*dT*dT*dT*dG*eG*eA*eA*kG*kA) [Compound 1198238]”: the “YAP1 (% UTC)” value is 88 % UTC.

For “1198239 (kA*kG*dG*dA*dT*dG*d[5mC]*dA*dT*dG*dG*eT*eT*eT*kT*kT) [Compound 1198239]”, the “YAP1 (% UTC)” value stood at 39 % UTC.

As to “1198240 (kT*kT*dA*dG*dG*dA*dT*dG*d[5mC]*dA*dT*eG*eG*eT*kT*kT) [Compound 1198240]”, the “YAP1 (% UTC)” value was 43 % UTC.

Staying with this data set, now noted: Table 43 experiment; SNU-449 cells, 10,000 cells per well, free uptake, 2,000 nM, approximately 48 hours; RTS36584; Yap1 mRNA normalized to RIBOGREEN, relative to untreated control cells.
Take “1198241 (kT*kT*dT*dA*dG*dG*dA*dT*dG*d[5mC]*dA*eT*eG*eG*kT*kT; antisense) [Compound 1198241]”: the “YAP1 (% UTC)” value was found to be 32 % UTC.

For “1198242 (kA*kT*dT*dT*dA*dG*dG*dA*dT*dG*d[5mC]*eA*eT*eG*kG*kT; antisense) [Compound 1198242]”, the “YAP1 (% UTC)” value is listed as 47 % UTC.

“1198243 (kG*kA*dT*dT*dT*dA*dG*dG*dA*dT*dG*e[5mC]*eA*eT*kG*kG; antisense) [Compound 1198243]”: the “YAP1 (% UTC)” value is given as 8 % UTC.

Regarding “1198244 (kA*kG*dA*dT*dT*dT*dA*dG*dG*dA*dT*eG*e[5mC]*eA*kT*kG; antisense) [Compound 1198244]”, the “YAP1 (% UTC)” value is on record as 24 % UTC.

In the case of “1198245 (k[5mC]*kA*dG*dA*dT*dT*dT*dA*dG*dG*dA*eT*eG*e[5mC]*kA*kT; antisense) [Compound 1198245]”, the “YAP1 (% UTC)” value is 46 % UTC.

Take “1198246 (kT*k[5mC]*dA*dG*dA*dT*dT*dT*dA*dG*dG*eA*eT*eG*k[5mC]*kA; antisense) [Compound 1198246]”: the “YAP1 (% UTC)” value came to 30 % UTC.

On to “1198247 (kA*kT*dT*d[5mC]*dA*dG*dA*dT*dT*dT*dA*eG*eG*eA*kT*kG; antisense) [Compound 1198247]”, for which the “YAP1 (% UTC)” value was 99 % UTC.

For “1198248 (kA*kT*dA*dT*dG*dG*dT*dT*dT*dT*dG*eT*eG*eT*kG*kT; antisense) [Compound 1198248]”, the “YAP1 (% UTC)” value is listed as 64 % UTC.

Turning to “1198249 (kT*kT*dA*dT*dA*dT*dG*dG*dT*dT*dT*eT*eG*eT*kG*kT; antisense) [Compound 1198249]”, the “YAP1 (% UTC)” value is 42 % UTC.

“1198250 (k[5mC]*kT*dT*dA*dT*dA*dT*dG*dG*dT*dT*eT*eT*eG*kT*kG; antisense) [Compound 1198250]”: the “YAP1 (% UTC)” value was found to be 50 % UTC.

For the substance “1198251 (kT*k[5mC]*dT*dT*dA*dT*dA*dT*dG*dG*dT*eT*eT*eT*kG*kT; antisense) [Compound 1198251]”, the “YAP1 (% UTC)” value was 83 % UTC.

For “1198252 (k[5mC]*kT*d[5mC]*dT*dT*dA*dT*dA*dT*dG*dG*eT*eT*eT*kT*kG; antisense) [Compound 1198252]”, the “YAP1 (% UTC)” value stood at 26 % UTC.

In the case of “1198253 (kA*d[5mC]*dT*d[5mC]*dT*dT*dA*dT*dA*dT*dG*eG*eT*eT*kT*kT; antisense) [Compound 1198253]”, the “YAP1 (% UTC)” value turned out to be 50 % UTC.

In the case of “1198255 (k[5mC]*kA*dA*d[5mC]*dT*d[5mC]*dT*dT*dA*dT*dA*eT*eG*eG*kT*kT; antisense) [Compound 1198255]”, the “YAP1 (% UTC)” value is reported as 84 % UTC.

For the substance “1198256 (kG*kA*d[5mC]*dA*dA*d[5mC]*dT*d[5mC]*dT*dT*dA*eT*eA*eT*kG*kG; antisense) [Compound 1198256]”, the “YAP1 (% UTC)” value turned out to be 78 % UTC.

With “1198257 (kA*dT*dT*dG*d[5mC]*dA*dA*dT*d[5mC]*dT*dG*eT*e[5mC]*eT*kG*kA; antisense) [Compound 1198257]”, the “YAP1 (% UTC)” value is reported as 85 % UTC.

In the case of “1198258 (kA*kT*dA*dT*dT*dG*d[5mC]*dA*dA*dT*d[5mC]*eT*eG*eT*k[5mC]*kT; antisense) [Compound 1198258]”, the “YAP1 (% UTC)” value is 52 % UTC.

For the substance “1198259 (kA*kA*dT*dA*dT*dT*dG*d[5mC]*dA*dA*dT*e[5mC]*eT*eG*kT*k[5mC]; antisense) [Compound 1198259]”, the “YAP1 (% UTC)” value was 51 % UTC.

Take “1198260 (kT*kA*dA*dT*dA*dT*dT*dG*d[5mC]*dA*dA*eT*e[5mC]*eT*kG*kT; antisense) [Compound 1198260]”: the “YAP1 (% UTC)” value is 106 % UTC.

Turning to “1198261 (kG*kT*dA*dA*dT*dA*dT*dT*dG*d[5mC]*dA*eA*eT*e[5mC]*kT*kG; antisense) [Compound 1198261]”, the “YAP1 (% UTC)” value was determined as 54 % UTC.

“1198262 (kT*kG*dT*dA*dA*dT*dA*dT*dT*dG*d[5mC]*eA*eA*eT*k[5mC]*kT; antisense) [Compound 1198262]”: the “YAP1 (% UTC)” value worked out at 114 % UTC.

In the case of “1198263 (kA*kT*dG*dT*dA*dA*dT*dA*dT*dT*dG*e[5mC]*eA*eA*kT*k[5mC]; antisense) [Compound 1198263]”, the “YAP1 (% UTC)” value was 114 % UTC.

For the substance “1198264 (kT*kA*dT*dG*dT*dA*dA*dT*dA*dT*dT*eG*e[5mC]*eA*kA*kT; antisense) [Compound 1198264]”, the “YAP1 (% UTC)” value amounted to 73 % UTC.

Turning to “1198265 (kT*kT*dT*dA*dT*dG*dT*dA*dA*dT*dA*eT*eT*eG*k[5mC]*kA; antisense) [Compound 1198265]”, the “YAP1 (% UTC)” value is recorded as 111 % UTC.

For the substance “1198266 (kT*kG*dT*dA*dT*dG*dT*d[5mC]*dA*dG*dA*eA*eG*eA*kG*kT; antisense) [Compound 1198266]”, the “YAP1 (% UTC)” value is recorded as 25 % UTC.

For the substance “1198267 (kA*kG*dT*dG*dT*dA*dT*dG*dT*d[5mC]*dA*eG*eA*eA*kG*kA; antisense) [Compound 1198267]”, the “YAP1 (% UTC)” value is 7 % UTC.

Take “1198268 (kA*kA*dG*dT*dG*dT*dA*dT*dG*dT*d[5mC]*eA*eG*eA*kA*kG; antisense) [Compound 1198268]”: the “YAP1 (% UTC)” value came out at 11 % UTC.

Consider “1198269 (kA*kA*dA*dG*dT*dG*dT*dA*dT*dG*dT*e[5mC]*eA*eG*kA*kA; antisense) [Compound 1198269]”, for which the “YAP1 (% UTC)” value was 58 % UTC.

“1198270 (kT*kA*dA*dA*dG*dT*dG*dT*dA*dT*dG*eT*e[5mC]*eA*kG*kA; antisense) [Compound 1198270]”: the “YAP1 (% UTC)” value came to 52 % UTC.

Regarding “1198271 (kT*kT*dA*dA*dA*dG*dT*dG*dT*dA*dT*eG*eT*e[5mC]*kA*kG) [Compound 1198271]”, the “YAP1 (% UTC)” value stood at 44 % UTC.

Take “1198272 (kT*kT*dT*dA*dA*dA*dG*dT*dG*dT*dA*eT*eG*eT*k[5mC]*kA; antisense) [Compound 1198272]”: the “YAP1 (% UTC)” value was 37 % UTC.

On to “1198273 (k[5mC]*kT*dT*dT*dA*dA*dA*dG*dT*dG*dT*eA*eT*eG*kT*k[5mC]; antisense) [Compound 1198273]”, for which the “YAP1 (% UTC)” value is listed as 52 % UTC.

For “1198274 (kA*kA*d[5mC]*dT*dT*dT*dA*dA*dA*dG*dT*eG*eT*eA*kT*kG; antisense) [Compound 1198274]”, the “YAP1 (% UTC)” value stood at 69 % UTC.
